Results on 24 compounds are retold here after patent publication US10988477B2 (Merck Patent GmbH, priority 2018, dated 2021).

Structures can show the parent of a compound that is named as a salt.

In assay [1] the target is intracellular GCN2 (phosphorylation of the GCN2 substrate eIF2α) (Homo sapiens, UniProt Q9P2K8). Put plainly: GCN2 cellular inhibition assay (AlphaScreen SureFire P-eIF2α Ser51, borrelidin-treated U2OS cells). As to conditions: compounds of Formula II; biomarker assay, phosphorylated eIF2α Ser51 in borrelidin-treated U2OS cells. It counts as cell-based. Summed up: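 Compound effect on GCN2 is gauged by eIF2α Ser51 phosphorylation in borrelidin-challenged U2OS cells (10 μM, 1 h). Top compound level is 40 μM final.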
For orientation: Bead proximity is the source of the signal in Alpha formats.

Assay [2] addresses GCN2 kinase (Homo sapiens, UniProt Q9P2K8). The assay is described as follows: GCN2 enzyme inhibition assay (Transcreener ADP2 fluorescence polarization). It counts as biochemical. The settings on record: compounds of Formula II; 280 μM ATP, 4 nM GCN2 kinase. An outline of the steps: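 Run at 25 °C in 25 mM Tris-HCl pH 7.5, 50 mM NaCl, 10 mM MgCl2, 1 mM DTT with 4 nM GCN2, 280 μM ATP and 200 μM (RS)7 peptide; compound (0–8 μM final) preincubated 10 min, reaction 1 h. ADP read by antibody/tracer FP; IC50 and Ki(app) from tight-binding fit.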
For orientation: In fluorescence polarisation assays a small probe gives low polarisation when free and higher when bound to something large.

Chain of GCN2 kinase (Q9P2K8 whole entry): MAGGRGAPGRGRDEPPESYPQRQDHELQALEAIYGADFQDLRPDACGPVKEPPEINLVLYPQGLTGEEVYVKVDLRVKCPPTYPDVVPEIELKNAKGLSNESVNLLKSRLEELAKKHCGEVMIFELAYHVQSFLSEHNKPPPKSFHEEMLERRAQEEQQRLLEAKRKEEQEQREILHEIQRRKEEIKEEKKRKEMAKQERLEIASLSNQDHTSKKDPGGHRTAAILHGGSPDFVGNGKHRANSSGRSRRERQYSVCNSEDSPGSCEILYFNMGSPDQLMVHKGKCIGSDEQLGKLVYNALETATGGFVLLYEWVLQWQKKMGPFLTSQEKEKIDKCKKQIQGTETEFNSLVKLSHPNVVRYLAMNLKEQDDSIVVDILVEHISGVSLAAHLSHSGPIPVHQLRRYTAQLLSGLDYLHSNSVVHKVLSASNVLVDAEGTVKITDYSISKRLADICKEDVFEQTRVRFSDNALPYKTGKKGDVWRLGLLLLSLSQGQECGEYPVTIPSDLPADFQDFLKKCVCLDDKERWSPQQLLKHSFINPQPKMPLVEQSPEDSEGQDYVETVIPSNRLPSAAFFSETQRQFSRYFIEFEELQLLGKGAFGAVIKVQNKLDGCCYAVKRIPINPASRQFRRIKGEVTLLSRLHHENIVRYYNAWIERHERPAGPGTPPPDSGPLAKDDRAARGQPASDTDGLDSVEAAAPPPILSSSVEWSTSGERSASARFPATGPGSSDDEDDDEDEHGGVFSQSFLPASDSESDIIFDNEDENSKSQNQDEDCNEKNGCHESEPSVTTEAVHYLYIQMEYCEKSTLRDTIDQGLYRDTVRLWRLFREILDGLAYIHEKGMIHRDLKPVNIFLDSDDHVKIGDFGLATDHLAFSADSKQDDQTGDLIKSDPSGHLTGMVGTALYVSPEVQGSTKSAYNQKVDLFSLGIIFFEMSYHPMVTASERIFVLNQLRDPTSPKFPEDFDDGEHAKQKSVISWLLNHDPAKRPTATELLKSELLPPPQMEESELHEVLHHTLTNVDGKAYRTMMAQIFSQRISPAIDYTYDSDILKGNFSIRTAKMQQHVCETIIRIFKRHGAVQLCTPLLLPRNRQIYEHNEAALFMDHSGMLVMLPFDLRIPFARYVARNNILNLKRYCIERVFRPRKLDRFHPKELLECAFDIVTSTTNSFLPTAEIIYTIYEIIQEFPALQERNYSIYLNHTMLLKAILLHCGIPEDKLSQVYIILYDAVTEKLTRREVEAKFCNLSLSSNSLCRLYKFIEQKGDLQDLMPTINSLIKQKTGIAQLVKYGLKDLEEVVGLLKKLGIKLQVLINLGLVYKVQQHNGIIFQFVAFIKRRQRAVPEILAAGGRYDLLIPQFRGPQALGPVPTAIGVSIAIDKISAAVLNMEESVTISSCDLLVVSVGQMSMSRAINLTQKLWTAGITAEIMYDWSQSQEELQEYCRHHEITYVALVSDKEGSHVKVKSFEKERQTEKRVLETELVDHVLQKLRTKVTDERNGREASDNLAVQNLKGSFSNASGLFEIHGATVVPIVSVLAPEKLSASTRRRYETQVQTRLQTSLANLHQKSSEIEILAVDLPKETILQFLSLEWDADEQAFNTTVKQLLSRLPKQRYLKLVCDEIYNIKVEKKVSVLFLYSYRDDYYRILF
Chain of intracellular GCN2 (phosphorylation of the GCN2 substrate eIF2α) (Q9P2K8 whole entry): as above

A word on the IC50: it is the concentration needed to halve the response being measured. Low readings indicate higher potency, high ones lower potency. In general, Ki refers to a dissociation constant, usually derived from enzyme kinetics or from competition with a known ligand. The compound `CS(=O)(=O)N1CC2CCN(c3cc(-c4cnc5ccc(C(F)F)nn45)ncn3)CC21` (stereo not drawn) [II-181, 6-(Difluoromethyl)-3-(6-(8-(methylsulfonyl)-3,8-diazabicyclo[4.2.0]octan-3-yl)pyrimidin-4-yl)imidazo[1,2-b]pyridazine] showed an IC50 in assay [1] above 5 µM. The same compound displayed a Ki in assay [2] above 1 µM.

Compound `CC(=O)N1CCN(c2cc(-c3cnc4ccc(OC(F)F)nn34)ccn2)CC1` [II-182, 1-(4-(4-(6-(Difluoromethoxy)imidazo[1,2-b]pyridazin-3-yl)pyridin-2-yl)piperazin-1-yl)ethanone] showed an IC50 in assay [1] above 5 µM. In assay [2], this compound gave an inhibition constant Ki of 0.01 to 1 µM.

`Cc1ccc2ncc(-c3ccnc(N4CCCC(CNS(C)(=O)=O)C4)c3)n2n1` (stereo not drawn) [II-183, N-((1-(4-(6-Methylimidazo[1,2-b]pyridazin-3-yl)pyridin-2-yl)piperidin-3-yl)methyl)methanesulfonamide] yielded an IC50 in assay [1] of 0.5 to 5 µM. In assay [2], this compound yielded a Ki of 0.01 to 1 µM.

`CS(=O)(=O)NCC1CN(c2cc(-c3cnc4ccc(Cl)nn34)ccn2)CCO1` (stereo not drawn) [II-184, N-((4-(4-(6-Chloroimidazo[1,2-b]pyridazin-3-yl)pyridin-2-yl)morpholin-2-yl)methyl)methanesulfonamide] showed an IC50 in assay [1] of 0.5 to 5 µM. Also, in assay [2], the Ki lay within 0.01 to 1 µM.

With `CC(=O)N1CCN(c2cc(-c3cnc4ccc(CO)nn34)ccn2)CC1` [II-185, 1-(4-(4-(6-(Hydroxymethyl)imidazo[1,2-b]pyridazin-3-yl)pyridin-2-yl)piperazin-1-yl)ethanone], in assay [1], the IC50 is above 5 µM. Further, the Ki in assay [2] was in the range of 0.01 to 1 µM.

With `CC(=O)N1CCN(c2cc(-c3cnc4ccc(C(F)F)nn34)ncn2)CC1` [II-186, 1-(4-(6-(6-(Difluoromethyl)imidazo[1,2-b]pyridazin-3-yl)pyrimidin-4-yl)piperazin-1-yl)ethan-1-one], in assay [1], the IC50 is 0.5 to 5 µM. Moreover, the Ki in assay [2] was in the range of 0.01 to 1 µM.

`O=C1CCN(c2cc(-c3cnc4ccc(Cl)nn34)ccn2)CCN1` [II-187, 1-(4-(6-Chloroimidazo[1,2-b]pyridazin-3-yl)pyridin-2-yl)-1,4-diazepan-5-one] yielded an IC50 in assay [1] above 5 µM. The same compound had a Ki in assay [2] of 0.01 to 1 µM.

`Clc1ccc2ncc(-c3ccnc(N4CCC5CNCC5C4)c3)n2n1` (stereo not drawn) [II-188] came in with an IC50 in assay [1] of 0.5 to 5 µM. The same compound returned a Ki in assay [2] of 0.01 to 1 µM.

In turn, `NC(=O)[C@H]1CCCN(c2cc(-c3cnc4ccc(Cl)nn34)ccn2)C1` [II-189, (S)-1-(4-(6-Chloroimidazo[1,2-b]pyridazin-3-yl)pyridin-2-yl)piperidine-3-carboxamide] returned an IC50 in assay [1] of 0.5 to 5 µM. The compound further displayed a Ki in assay [2] of 0.01 to 1 µM.

Take `O=C(NCCO)C1CCCN(c2cc(-c3cnc4ccc(C(F)F)nn34)ncn2)C1` (stereo not drawn) [II-191, 1-(6-(6-(Difluoromethyl)imidazo[1,2-b]pyridazin-3-yl)pyrimidin-4-yl)-N-(2-hydroxyethyl)piperidine-3-carboxamide]: in assay [1], the IC50 was above 5 µM. In assay [2], this compound came in with a Ki of 0.01 to 1 µM.

In assay [1], `NS(=O)(=O)C1CCN(c2cc(-c3cnc4ccc(C(F)F)nn34)ncn2)C1` (stereo not drawn) [II-192, 1-(6-(6-(Difluoromethyl)imidazo[1,2-b]pyridazin-3-yl)pyrimidin-4-yl)pyrrolidine-3-sulfonamide] displayed an IC50 above 5 µM. The compound also had a Ki in assay [2] of 0.01 to 1 µM.

In the case of `CC(=O)N1CCN(c2cc(-c3cnc4ccc(C)nn34)ccn2)CC1` [II-193, 1-(4-(4-(6-Methylimidazo[1,2-b]pyridazin-3-yl)pyridin-2-yl)piperazin-1-yl)ethanone], the half-inhibitory concentration (IC50) in assay [1] was above 5 µM. The compound also came in with a Ki in assay [2] of 0.01 to 1 µM.

Consider `Clc1ccc2ncc(-c3ccnc(N4CCOCC4)c3)n2n1` [II-194, 4-(4-(6-Chloroimidazo[1,2-b]pyridazin-3-yl)pyridin-2-yl)morpholine], for which the IC50 in assay [1] is above 5 µM. Further, the Ki in assay [2] was in the range of 0.01 to 1 µM.

For `CN1CCN(c2cc(-c3cnc4ccc(Cl)nn34)ccn2)CC1` [II-195, 6-Chloro-3-(2-(4-methylpiperazin-1-yl)pyridin-4-yl)imidazo[1,2-b]pyridazine], in assay [1], the half-maximal inhibitory concentration (IC50) was above 5 µM. In assay [2], this compound showed a Ki of 0.01 to 1 µM.

Compound `CCc1ccc2ncc(-c3cc(N4CCO[C@H](CNS(C)(=O)=O)C4)ncn3)n2n1` [II-196, (S)—N-((4-(6-(6-Ethylimidazo[1,2-b]pyridazin-3-yl)pyrimidin-4-yl)morpholin-2-yl)methyl)methanesulfonamide] had a concentration for half-maximal inhibition (IC50) in assay [1] above 5 µM. Further, the Ki in assay [2] lay within 0.01 to 1 µM.

The compound `C[C@@H]1CO[C@H](CNS(C)(=O)=O)CN1c1cc(-c2cnc3ccc(C(F)F)nn23)ncn1` [II-197, N-(((2S,5R)-4-(6-(6-(Difluoromethyl)imidazo[1,2-b]pyridazin-3-yl)pyrimidin-4-yl)-5-methylmorpholin-2-yl)methyl)methanesulfonamide] returned an IC50 in assay [1] below 0.5 µM. Further, the Ki in assay [2] is below 0.01 µM.

Turning to `COC1CC(CNS(C)(=O)=O)CN(c2cc(-c3cnc4ccc(C(F)F)nn34)ncn2)C1` (stereo not drawn) [II-198, N-((1-(6-(6-(Difluoromethyl)imidazo[1,2-b]pyridazin-3-yl)pyrimidin-4-yl)-5-methoxypiperidin-3-yl)methyl)methanesulfonamide], in assay [1], the half-maximal inhibitory concentration (IC50) is above 5 µM. The same compound displayed a Ki in assay [2] of 0.01 to 1 µM.

Turning to `CS(=O)(=O)NC1CCN(c2cc(-c3cnc4ccc(C(F)F)nn34)ncn2)C1` (stereo not drawn) [II-199, N-(1-(6-(6-(Difluoromethyl)imidazo[1,2-b]pyridazin-3-yl)pyrimidin-4-yl)pyrrolidin-3-yl)methanesulfonamide], in assay [1], the concentration for half-maximal inhibition (IC50) was above 5 µM. In assay [2], this compound displayed a Ki of 0.01 to 1 µM.

In assay [1], `O=C1NCC2CCN(c3cc(-c4cnc5ccc(C(F)F)nn45)ncn3)CC12` (stereo not drawn) [II-200, 5-(6-(6-(Difluoromethyl)imidazo[1,2-b]pyridazin-3-yl)pyrimidin-4-yl)octahydro-3H-pyrrolo[3,4-c]pyridin-3-one] showed an IC50 above 5 µM. In assay [2], this compound registered an inhibition constant (Ki) of 0.01 to 1 µM.

`C[C@@H]1CN(c2cc(-c3cnc4ccc(C(F)F)nn34)ncn2)CC(C(N)=O)O1` (stereo partly drawn) [II-201, (6R)-4-(6-(6-(Difluoromethyl)imidazo[1,2-b]pyridazin-3-yl)pyrimidin-4-yl)-6-methylmorpholine-2-carboxamide] showed an IC50 in assay [1] above 5 µM. In assay [2], this compound had a Ki of 0.01 to 1 µM.

`NS(=O)(=O)NCC1CCCN(c2cc(-c3cnc4ccc(C(F)F)nn34)ncn2)C1` (stereo not drawn) [II-202, 1-((1-(6-(6-(Difluoromethyl)imidazo[1,2-b]pyridazin-3-yl)pyrimidin-4-yl)piperidin-3-yl)methyl)sulfuric diamide]: the IC50 in assay [1] was below 0.5 µM. Further, the Ki in assay [2] is below 0.01 µM.

`FC(F)c1ccc2ncc(-c3cc(N4CCC(c5c[nH]cn5)C4)ncn3)n2n1` (stereo not drawn) [II-203, 3-(6-(3-(1H-imidazol-4-yl)pyrrolidin-1-yl)pyrimidin-4-yl)-6-(difluoromethyl)imidazo[1,2-b]pyridazine] displayed an IC50 in assay [1] above 5 µM. The compound further displayed an inhibition constant Ki in assay [2] of 0.01 to 1 µM.

`COc1ccc2ncc(-c3ccnc(N4CCN(C(C)=O)CC4)c3)n2n1` [II-204, 1-(4-(4-(6-Methoxyimidazo[1,2-b]pyridazin-3-yl)pyridin-2-yl)piperazin-1-yl)ethan-1-one trifluoroacetate] gave an IC50 in assay [1] above 5 µM. Further, in assay [2], the Ki lay in the range of 0.01 to 1 µM.

The compound `NC(=O)c1cc(C2CCCN(c3cc(-c4cnc5ccc(C(F)F)nn45)ncn3)C2)n[nH]1` (stereo not drawn) [II-205, 3-(1-(6-(6-(Difluoromethyl)imidazo[12-b]pyridazin-3-yl)pyrimidin-4-yl)piperidin-3-yl)-1H-pyrazole-5-carboxamide] came in with an IC50 in assay [1] of 0.5 to 5 µM. The Ki in assay [2] fell in the range of 0.01 to 1 µM.
